Source: the supplement of paper PMC10307832

Experiments:
Assay in all cases: relative viability (nuclei count vs DMSO), 5 days (fraction); higher = more cells survive
EHT 1864 = compound: C1COCCN1CC2=CC(=O)C(=CO2)OCCCCCSC3=C4C=CC(=CC4=NC=C3)C(F)(F)F [EHT 1864]
Procedure, shortened: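 For viability, nuclei in each treated well were divided by nuclei in vehicle wells and the median across plates was taken. Lung cancer cell lines in 1536-well plates were pinned with five library-drug doses (not always all listed) spaced by √10, cultured 5 days without medium change, and imaged at 4× after Hoechst staining, with plates passing only at control CV below 25% and at least one doubling.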

EHT 1864 + Tozasertib = compound: C1COCCN1CC2=CC(=O)C(=CO2)OCCCCCSC3=C4C=CC(=CC4=NC=C3)C(F)(F)F [EHT 1864] + Cc1cc(Nc2cc(N3CCN(C)CC3)nc(Sc3ccc(NC(=O)C4CC4)cc3)n2)n[nH]1 [Tozasertib] (partner 0.1 µM)
Procedure, shortened: (§1)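 For relative viability, nuclei counts in treated wells were divided by those in vehicle wells. Lung cancer cell lines had been pin-tool dosed in 1536-well plates the day after seeding and cultured for 5 days, then fixed and stained in one step (final 0.05% Triton X-100, 1% formaldehyde, 1 ug/ml Hoechst) and imaged at 4×. Doses were one drug alone or a fixed anchor-drug dose plus five library-drug doses (not always all listed) in √10 steps, and values are duplicate-plate medians.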

EHT 1864 + Pemetrexed = compound: C1COCCN1CC2=CC(=O)C(=CO2)OCCCCCSC3=C4C=CC(=CC4=NC=C3)C(F)(F)F [EHT 1864] + Nc1nc2[nH]cc(CCc3ccc(C(=O)N[C@@H](CCC(=O)O)C(=O)O)cc3)c2c(=O)[nH]1 [Pemetrexed] (partner 0.2 µM)
Procedure, shortened: as §1

EHT 1864 + Palbociclib = compound: C1COCCN1CC2=CC(=O)C(=CO2)OCCCCCSC3=C4C=CC(=CC4=NC=C3)C(F)(F)F [EHT 1864] + CC(=O)c1c(C)c2cnc(Nc3ccc(N4CCNCC4)cn3)nc2n(C2CCCC2)c1=O [Palbociclib] (partner 0.5 µM)
Procedure, shortened: as §1

EHT 1864 + Dasatinib = compound: C1COCCN1CC2=CC(=O)C(=CO2)OCCCCCSC3=C4C=CC(=CC4=NC=C3)C(F)(F)F [EHT 1864] + Cc1nc(Nc2ncc(C(=O)Nc3c(C)cccc3Cl)s2)cc(N2CCN(CCO)CC2)n1 [Dasatinib] (partner 0.075 µM)
Procedure, shortened: as §1

EHT 1864 + Olaparib = compound: C1COCCN1CC2=CC(=O)C(=CO2)OCCCCCSC3=C4C=CC(=CC4=NC=C3)C(F)(F)F [EHT 1864] + O=C(c1cc(Cc2n[nH]c(=O)c3ccccc23)ccc1F)N1CCN(C(=O)C2CC2)CC1 [Olaparib] (partner 8 µM)
Procedure, shortened: as §1

EHT 1864 + Luminespib = compound: C1COCCN1CC2=CC(=O)C(=CO2)OCCCCCSC3=C4C=CC(=CC4=NC=C3)C(F)(F)F [EHT 1864] + CCNC(=O)c1noc(-c2cc(C(C)C)c(O)cc2O)c1-c1ccc(CN2CCOCC2)cc1 [Luminespib] (partner 0.01 µM)
Procedure, shortened: as §1

EHT 1864 + Decitabine = compound: C1COCCN1CC2=CC(=O)C(=CO2)OCCCCCSC3=C4C=CC(=CC4=NC=C3)C(F)(F)F [EHT 1864] + Nc1ncn([C@H]2C[C@H](O)[C@@H](CO)O2)c(=O)n1 [Decitabine] (partner 2 µM)
Procedure, shortened: as §1

EHT 1864 + OSI-027 = compound: C1COCCN1CC2=CC(=O)C(=CO2)OCCCCCSC3=C4C=CC(=CC4=NC=C3)C(F)(F)F [EHT 1864] + COc1cccc2cc(-c3nc([C@H]4CC[C@H](C(=O)O)CC4)n4ncnc(N)c34)[nH]c12 [OSI-027] (partner 0.5 µM)
Procedure, shortened: as §1

EHT 1864 + Phenformin = compound: C1COCCN1CC2=CC(=O)C(=CO2)OCCCCCSC3=C4C=CC(=CC4=NC=C3)C(F)(F)F [EHT 1864] + N=C(N)NC(=N)NCCc1ccccc1 [Phenformin] (partner 250 µM)
Procedure, shortened: as §1

EHT 1864 + AZD7762 = compound: C1COCCN1CC2=CC(=O)C(=CO2)OCCCCCSC3=C4C=CC(=CC4=NC=C3)C(F)(F)F [EHT 1864] + NC(=O)Nc1cc(-c2cccc(F)c2)sc1C(=O)N[C@H]1CCCNC1 [AZD7762] (partner 0.2 µM)
Procedure, shortened: as §1

EHT 1864 + Vorinostat = compound: C1COCCN1CC2=CC(=O)C(=CO2)OCCCCCSC3=C4C=CC(=CC4=NC=C3)C(F)(F)F [EHT 1864] + O=C(CCCCCCC(=O)Nc1ccccc1)NO [Vorinostat] (partner 1 µM)
Procedure, shortened: as §1

EHT 1864 + Trametinib = compound: C1COCCN1CC2=CC(=O)C(=CO2)OCCCCCSC3=C4C=CC(=CC4=NC=C3)C(F)(F)F [EHT 1864] + CC(=O)Nc1cccc(-n2c(=O)n(C3CC3)c(=O)c3c(Nc4ccc(I)cc4F)n(C)c(=O)c(C)c32)c1 [Trametinib] (partner 0.02 µM)
Procedure, shortened: as §1

EHT 1864 + Foretinib = compound: C1COCCN1CC2=CC(=O)C(=CO2)OCCCCCSC3=C4C=CC(=CC4=NC=C3)C(F)(F)F [EHT 1864] + COc1cc2c(Oc3ccc(NC(=O)C4(C(=O)Nc5ccc(F)cc5)CC4)cc3F)ccnc2cc1OCCCN1CCOCC1 [Foretinib] (partner 0.25 µM)
Procedure, shortened: as §1

NCI-H522
relative viability (EHT 1864; 0.04 µM): 0.845 | relative viability (EHT 1864; 0.1265 µM): 0.939 | relative viability (EHT 1864; 0.4 µM): 0.996 | relative viability (EHT 1864; 1.265 µM): 1 | relative viability (EHT 1864; 4 µM): 0.855 | relative viability (EHT 1864 + Tozasertib; first compound 0.04 µM): 0.583 | relative viability (EHT 1864 + Tozasertib; first compound 0.1265 µM): 0.471 | relative viability (EHT 1864 + Tozasertib; first compound 0.4 µM): 0.561 | relative viability (EHT 1864 + Tozasertib; first compound 1.265 µM): 0.503 | relative viability (EHT 1864 + Tozasertib; first compound 4 µM): 0.541 | relative viability (EHT 1864 + Pemetrexed; first compound 0.04 µM): 1.29 | relative viability (EHT 1864 + Pemetrexed; first compound 0.1265 µM): 0.75 | relative viability (EHT 1864 + Pemetrexed; first compound 0.4 µM): 0.977 | relative viability (EHT 1864 + Pemetrexed; first compound 1.265 µM): 1.16 | relative viability (EHT 1864 + Pemetrexed; first compound 4 µM): 1.18 | relative viability (EHT 1864 + Palbociclib; first compound 0.04 µM): 1.11 | relative viability (EHT 1864 + Palbociclib; first compound 0.1265 µM): 1.02 | relative viability (EHT 1864 + Palbociclib; first compound 0.4 µM): 0.948 | relative viability (EHT 1864 + Palbociclib; first compound 1.265 µM): 1 | relative viability (EHT 1864 + Palbociclib; first compound 4 µM): 1.05 | relative viability (EHT 1864 + Dasatinib; first compound 0.04 µM): 0.919 | relative viability (EHT 1864 + Dasatinib; first compound 0.1265 µM): 0.724 | relative viability (EHT 1864 + Dasatinib; first compound 0.4 µM): 1.04 | relative viability (EHT 1864 + Dasatinib; first compound 1.265 µM): 0.812 | relative viability (EHT 1864 + Dasatinib; first compound 4 µM): 0.875 | relative viability (EHT 1864 + Olaparib; first compound 0.04 µM): 0.719 | relative viability (EHT 1864 + Olaparib; first compound 0.1265 µM): 0.66 | relative viability (EHT 1864 + Olaparib; first compound 0.4 µM): 0.63 | relative viability (EHT 1864 + Olaparib; first compound 1.265 µM): 0.666 | relative viability (EHT 1864 + Olaparib; first compound 4 µM): 0.734 | relative viability (EHT 1864 + Luminespib; first compound 0.04 µM): 1.18 | relative viability (EHT 1864 + Luminespib; first compound 0.4 µM): 1.23 | relative viability (EHT 1864 + Luminespib; first compound 1.265 µM): 1.06 | relative viability (EHT 1864 + Luminespib; first compound 4 µM): 1.22 | relative viability (EHT 1864 + Decitabine; first compound 0.04 µM): 0.592 | relative viability (EHT 1864 + Decitabine; first compound 0.1265 µM): 0.685 | relative viability (EHT 1864 + Decitabine; first compound 0.4 µM): 0.709 | relative viability (EHT 1864 + Decitabine; first compound 1.265 µM): 0.702 | relative viability (EHT 1864 + Decitabine; first compound 4 µM): 0.703 | relative viability (EHT 1864 + OSI-027; first compound 0.04 µM): 0.818 | relative viability (EHT 1864 + OSI-027; first compound 0.1265 µM): 0.631 | relative viability (EHT 1864 + OSI-027; first compound 0.4 µM): 0.696 | relative viability (EHT 1864 + OSI-027; first compound 1.265 µM): 0.662 | relative viability (EHT 1864 + OSI-027; first compound 4 µM): 0.652 | relative viability (EHT 1864 + Phenformin; first compound 0.04 µM): 0.538 | relative viability (EHT 1864 + Phenformin; first compound 0.1265 µM): 0.613 | relative viability (EHT 1864 + Phenformin; first compound 0.4 µM): 0.605 | relative viability (EHT 1864 + Phenformin; first compound 1.265 µM): 0.571 | relative viability (EHT 1864 + Phenformin; first compound 4 µM): 0.4 | relative viability (EHT 1864 + AZD7762; first compound 0.04 µM): 0.844 | relative viability (EHT 1864 + AZD7762; first compound 0.1265 µM): 0.774 | relative viability (EHT 1864 + AZD7762; first compound 0.4 µM): 0.802 | relative viability (EHT 1864 + AZD7762; first compound 1.265 µM): 0.973 | relative viability (EHT 1864 + AZD7762; first compound 4 µM): 1.07 | relative viability (EHT 1864 + Vorinostat; first compound 0.04 µM): 0.76 | relative viability (EHT 1864 + Vorinostat; first compound 0.1265 µM): 0.738 | relative viability (EHT 1864 + Vorinostat; first compound 0.4 µM): 0.901 | relative viability (EHT 1864 + Vorinostat; first compound 1.265 µM): 0.893 | relative viability (EHT 1864 + Vorinostat; first compound 4 µM): 1.03 | relative viability (EHT 1864 + Trametinib; first compound 0.04 µM): 0.756 | relative viability (EHT 1864 + Trametinib; first compound 0.1265 µM): 0.917 | relative viability (EHT 1864 + Trametinib; first compound 0.4 µM): 0.836 | relative viability (EHT 1864 + Trametinib; first compound 1.265 µM): 0.722 | relative viability (EHT 1864 + Trametinib; first compound 4 µM): 0.756

NCI-H1623
relative viability (EHT 1864; 0.04 µM): 0.995 | relative viability (EHT 1864; 0.1265 µM): 0.972 | relative viability (EHT 1864; 0.4 µM): 1.02 | relative viability (EHT 1864; 1.265 µM): 0.921 | relative viability (EHT 1864; 4 µM): 1.14 | relative viability (EHT 1864 + Tozasertib; first compound 0.04 µM): 0.418 | relative viability (EHT 1864 + Tozasertib; first compound 0.1265 µM): 0.394 | relative viability (EHT 1864 + Tozasertib; first compound 0.4 µM): 0.445 | relative viability (EHT 1864 + Tozasertib; first compound 1.265 µM): 0.458 | relative viability (EHT 1864 + Tozasertib; first compound 4 µM): 0.399 | relative viability (EHT 1864 + Foretinib; first compound 0.04 µM): 0.937 | relative viability (EHT 1864 + Foretinib; first compound 0.1265 µM): 0.869 | relative viability (EHT 1864 + Foretinib; first compound 0.4 µM): 0.855 | relative viability (EHT 1864 + Foretinib; first compound 1.265 µM): 0.959 | relative viability (EHT 1864 + Foretinib; first compound 4 µM): 0.959 | relative viability (EHT 1864 + Dasatinib; first compound 0.04 µM): 0.641 | relative viability (EHT 1864 + Dasatinib; first compound 0.1265 µM): 0.676 | relative viability (EHT 1864 + Dasatinib; first compound 0.4 µM): 0.514 | relative viability (EHT 1864 + Dasatinib; first compound 1.265 µM): 0.583 | relative viability (EHT 1864 + Dasatinib; first compound 4 µM): 0.477 | relative viability (EHT 1864 + Luminespib; first compound 0.04 µM): 0.584 | relative viability (EHT 1864 + Luminespib; first compound 0.1265 µM): 0.522 | relative viability (EHT 1864 + Luminespib; first compound 0.4 µM): 0.445 | relative viability (EHT 1864 + Luminespib; first compound 1.265 µM): 0.581 | relative viability (EHT 1864 + Luminespib; first compound 4 µM): 0.384 | relative viability (EHT 1864 + OSI-027; first compound 0.04 µM): 0.439 | relative viability (EHT 1864 + OSI-027; first compound 0.1265 µM): 0.433 | relative viability (EHT 1864 + OSI-027; first compound 0.4 µM): 0.474 | relative viability (EHT 1864 + OSI-027; first compound 1.265 µM): 0.475 | relative viability (EHT 1864 + OSI-027; first compound 4 µM): 0.432 | relative viability (EHT 1864 + Phenformin; first compound 0.04 µM): 0.617 | relative viability (EHT 1864 + Phenformin; first compound 0.1265 µM): 0.665 | relative viability (EHT 1864 + Phenformin; first compound 0.4 µM): 0.576 | relative viability (EHT 1864 + Phenformin; first compound 1.265 µM): 0.617 | relative viability (EHT 1864 + Phenformin; first compound 4 µM): 0.539
